From PMC11426533 (PLOS Pathogens, 2024)

What was measured:
[1] = biological target: T1, ChiA (N-terminally trimmed version) (Clostridium perfringens, UniProt F8UNI5)
T1 construct: gene CP4_3455

[2] = biological target: T2, ChiB (Clostridium perfringens, UniProt F8UNI4)
T2 construct: gene CP4_3454

[3] = biological target: T1, ChiA (N-terminally trimmed version); remark: listed apart in the source

T1 sequence (F8UNI5 46-611 limits assumed): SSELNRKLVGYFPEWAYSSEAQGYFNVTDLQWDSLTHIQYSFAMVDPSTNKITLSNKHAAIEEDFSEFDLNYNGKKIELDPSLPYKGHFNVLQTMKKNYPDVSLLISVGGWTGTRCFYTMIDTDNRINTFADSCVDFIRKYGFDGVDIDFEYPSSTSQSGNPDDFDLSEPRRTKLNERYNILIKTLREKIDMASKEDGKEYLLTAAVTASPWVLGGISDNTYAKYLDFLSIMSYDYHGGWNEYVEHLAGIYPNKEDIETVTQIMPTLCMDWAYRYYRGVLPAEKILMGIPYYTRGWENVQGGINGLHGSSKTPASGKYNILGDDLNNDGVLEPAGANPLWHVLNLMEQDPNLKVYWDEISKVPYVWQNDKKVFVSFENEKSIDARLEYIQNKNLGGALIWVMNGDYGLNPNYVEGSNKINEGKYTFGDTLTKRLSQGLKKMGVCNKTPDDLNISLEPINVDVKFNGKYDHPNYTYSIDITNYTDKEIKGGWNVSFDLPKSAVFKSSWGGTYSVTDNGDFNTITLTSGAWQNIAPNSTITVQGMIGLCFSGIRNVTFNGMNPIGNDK
T2 sequence (F8UNI4 1-599): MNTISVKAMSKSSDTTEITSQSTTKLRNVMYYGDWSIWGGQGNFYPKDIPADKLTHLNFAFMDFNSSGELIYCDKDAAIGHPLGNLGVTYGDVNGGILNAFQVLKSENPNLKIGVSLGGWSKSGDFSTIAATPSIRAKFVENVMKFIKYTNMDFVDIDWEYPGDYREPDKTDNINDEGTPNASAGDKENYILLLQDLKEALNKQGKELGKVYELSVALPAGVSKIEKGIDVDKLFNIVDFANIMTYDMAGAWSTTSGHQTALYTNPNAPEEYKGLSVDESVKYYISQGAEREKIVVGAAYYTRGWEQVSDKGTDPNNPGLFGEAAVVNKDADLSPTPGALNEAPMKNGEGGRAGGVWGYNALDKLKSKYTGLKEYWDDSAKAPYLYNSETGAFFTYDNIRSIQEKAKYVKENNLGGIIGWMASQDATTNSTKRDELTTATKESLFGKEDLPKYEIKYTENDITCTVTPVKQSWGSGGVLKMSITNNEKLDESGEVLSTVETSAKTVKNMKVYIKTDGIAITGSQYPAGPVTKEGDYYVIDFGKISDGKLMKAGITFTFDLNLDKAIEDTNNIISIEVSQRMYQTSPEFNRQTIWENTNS

Compound: Cn1cnc2c1c(=O)n(CCCn1c(=O)c3c(ncn3C)n(C)c1=O)c(=O)n2C [Bisdionin C]
- X-ray crystal structure by soaking, 1.35 Å [1]: The crystal of ChiA in complex with the chitinase inhibitor Bisdionin C
- X-ray co-crystal structure, 1.85 Å [2]: The crystal of ChiB in complex with the chitinase inhibitor Bisdionin C

Compound: N[C@H]1[C@H](O[C@H]2[C@H](O)[C@@H](N)[C@H](O[C@H]3[C@H](O)[C@@H](N)[C@H](O[C@H]4[C@H](O)[C@@H](N)[C@H](O[C@H]5[C@H](O)[C@@H](N)[C@H](O[C@H]6[C@H](O)[C@@H](N)C(O)O[C@@H]6CO)O[C@@H]5CO)O[C@@H]4CO)O[C@@H]3CO)O[C@@H]2CO)O[C@H](CO)[C@@H](O)[C@@H]1O (stereo partly drawn) [chitosan hexamer]
- X-ray co-crystal structure, 1.30 Å [3]: The crystal of ChiA in complex with the chitinase inhibitor chitosan
